Measured values as given in patent publication US6713515B2, “Retinoic acid receptor antagonists as promoters of angiogenesis” (Bristol Myers Squibb Company, priority 2000, dated 2004).
“Also recorded” adds a separate entry of the source.

Assays:
[1] = target: T1, RAR-α (Homo sapiens, UniProt P10276); experiment: Receptor transactivation, GAL4-RAR chimeric receptor/CAT reporter in HeLa cells; format: cell-based; details: 24 hours
T1 sequence (P10276 with tags, fused parts or gaps limits assumed, species assumed): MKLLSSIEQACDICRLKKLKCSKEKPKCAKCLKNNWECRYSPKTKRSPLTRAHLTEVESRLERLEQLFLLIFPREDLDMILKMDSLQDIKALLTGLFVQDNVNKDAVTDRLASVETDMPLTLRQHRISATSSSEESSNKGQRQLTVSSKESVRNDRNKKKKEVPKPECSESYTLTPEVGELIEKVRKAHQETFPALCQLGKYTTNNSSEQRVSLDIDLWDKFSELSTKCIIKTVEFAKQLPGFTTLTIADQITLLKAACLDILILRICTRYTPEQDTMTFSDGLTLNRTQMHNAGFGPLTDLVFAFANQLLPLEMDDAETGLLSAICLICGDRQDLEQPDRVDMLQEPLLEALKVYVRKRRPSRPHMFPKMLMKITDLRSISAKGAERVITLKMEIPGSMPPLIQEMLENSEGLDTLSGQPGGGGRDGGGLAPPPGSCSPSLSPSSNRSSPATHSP

[2] = target: T2, RAR-β (Homo sapiens, UniProt P10826); experiment: as above; format: cell-based
T2 sequence (P10826 with tags, fused parts or gaps limits assumed, species assumed): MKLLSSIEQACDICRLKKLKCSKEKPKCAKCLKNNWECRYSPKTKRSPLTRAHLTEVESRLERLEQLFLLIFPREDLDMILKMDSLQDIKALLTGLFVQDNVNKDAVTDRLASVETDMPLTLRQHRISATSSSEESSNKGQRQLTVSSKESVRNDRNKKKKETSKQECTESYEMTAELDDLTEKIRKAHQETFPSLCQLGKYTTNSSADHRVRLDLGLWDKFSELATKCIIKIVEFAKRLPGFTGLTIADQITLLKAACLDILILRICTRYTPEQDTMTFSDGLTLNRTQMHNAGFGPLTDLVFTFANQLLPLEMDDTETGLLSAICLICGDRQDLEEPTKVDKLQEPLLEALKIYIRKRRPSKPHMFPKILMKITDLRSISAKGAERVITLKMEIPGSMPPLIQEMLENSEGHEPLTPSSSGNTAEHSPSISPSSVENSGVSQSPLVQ

[3] = target: T3, RAR-γ (Homo sapiens, UniProt P13631); experiment: as above; format: cell-based; details: 24 hours
T3 sequence (P13631 with tags, fused parts or gaps limits assumed, species assumed): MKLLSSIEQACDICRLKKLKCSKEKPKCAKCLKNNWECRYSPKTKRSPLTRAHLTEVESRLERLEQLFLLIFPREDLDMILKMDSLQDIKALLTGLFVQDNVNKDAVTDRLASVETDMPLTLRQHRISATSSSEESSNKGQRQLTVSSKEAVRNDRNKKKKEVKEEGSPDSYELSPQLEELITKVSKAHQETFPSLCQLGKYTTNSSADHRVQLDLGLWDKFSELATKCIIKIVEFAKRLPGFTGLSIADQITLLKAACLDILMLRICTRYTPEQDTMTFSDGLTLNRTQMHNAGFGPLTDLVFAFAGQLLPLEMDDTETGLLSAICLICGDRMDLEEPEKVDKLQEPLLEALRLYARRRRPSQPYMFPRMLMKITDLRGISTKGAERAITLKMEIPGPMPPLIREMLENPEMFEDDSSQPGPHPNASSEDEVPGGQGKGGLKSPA

[4] = target: T3, RAR-γ; experiment: Transactivation competition assay (antagonist activity) in transfected HeLa cells; format: cell-based; details: for Competition RAR-γ % MAX: inhibition of transactivation by 10^−7 M t-RA, 16 hours
Procedure: (§1) Antagonist Activity Antagonist activity of the test retinoids was evaluated by a transactivation competition assay. Transfected HeLa cells were treated for 16 hours with 10^−7 M t-RA, with or without test retinoids, at concentrations of 10^−8 to 10^−5 M. The cells were then harvested and assayed for CAT activity. The antagonist activity was determined as an IC50 for the inhibition of transactivation produced by t-RA.

[5] = target: T1, RAR-α; experiment: as above; format: cell-based; details: for Competition RAR-α % MAX: inhibition of transactivation by 10^−7 M t-RA, 16 hours
Procedure: as §1

[6] = target: T4, RAR-α (Homo sapiens, UniProt P10276); experiment: Receptor binding competition assay with radioactive t-RA; details: apparent Kd from competition with radioactive t-RA, recombinant RAR; read-out: Direct Binding RAR-α Kd
T4 sequence (P10276 1-462): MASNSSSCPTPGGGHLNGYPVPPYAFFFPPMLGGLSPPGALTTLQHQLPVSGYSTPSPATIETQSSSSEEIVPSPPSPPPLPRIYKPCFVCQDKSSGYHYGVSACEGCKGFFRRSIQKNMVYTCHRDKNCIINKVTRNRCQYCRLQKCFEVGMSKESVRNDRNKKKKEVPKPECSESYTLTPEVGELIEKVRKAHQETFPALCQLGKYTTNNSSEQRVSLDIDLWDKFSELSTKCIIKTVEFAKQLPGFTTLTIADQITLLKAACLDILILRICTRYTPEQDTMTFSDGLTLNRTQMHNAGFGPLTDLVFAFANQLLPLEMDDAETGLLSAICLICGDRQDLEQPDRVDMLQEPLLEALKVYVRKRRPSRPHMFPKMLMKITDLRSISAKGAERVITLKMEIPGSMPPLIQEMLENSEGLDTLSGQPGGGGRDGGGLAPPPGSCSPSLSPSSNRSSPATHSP

[7] = target: T5, RAR-γ (Homo sapiens, UniProt P13631); experiment: as above; details: for Kd: apparent Kd from competition with radioactive t-RA, recombinant RAR, read-out: Direct Binding RAR-γ Kd
T5 sequence (P13631 1-454): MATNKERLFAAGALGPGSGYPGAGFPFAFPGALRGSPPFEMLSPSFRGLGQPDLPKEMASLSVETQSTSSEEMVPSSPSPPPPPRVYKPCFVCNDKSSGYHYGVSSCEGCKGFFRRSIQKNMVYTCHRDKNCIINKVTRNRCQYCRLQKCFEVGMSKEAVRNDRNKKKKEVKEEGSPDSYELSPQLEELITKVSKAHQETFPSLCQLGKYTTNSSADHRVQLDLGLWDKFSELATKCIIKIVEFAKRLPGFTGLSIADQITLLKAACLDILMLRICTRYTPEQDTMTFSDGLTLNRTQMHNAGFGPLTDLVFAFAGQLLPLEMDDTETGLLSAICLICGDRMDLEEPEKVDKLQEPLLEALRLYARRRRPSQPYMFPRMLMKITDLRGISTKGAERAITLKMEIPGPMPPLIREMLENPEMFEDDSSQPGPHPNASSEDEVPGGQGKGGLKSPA

[8] = target: T2, RAR-β; experiment: Transactivation competition assay (antagonist activity) in transfected HeLa cells; format: cell-based; details: for Competition RAR-β % MAX: inhibition of transactivation by 10^−7 M t-RA, 16 hours
[9] = system: C57BL/KsJ mice; experiment: Skin flap model of angiogenesis; format: in vivo
Procedure: The skin flap model is a suitable in vivo approach to monitor the angiogenic response because it requires restoration of the disrupted blood vessel network that is impaired at the distal edge of the flap. A single application of vehicle (ethanol) or different concentrations of Compound 5 were performed. The results were monitored one and two weeks after the initiation of the experiment.
Sections were deparaffinized in xylene and rehydrated in a series of ethanol/water solutions. A 4% mouse non-immune serum in PBS was used for blocking. Monoclonal anti-PECAM-1 antibody (CD31, Sigma) was used at 1:100 dilution. FITC-conjugated anti-mouse IgG antibody (Sigma) was further applied to the sections at 1:200 dilution. Visualization was performed on an Olympus fluorescent microscope.
Female C57BL/KsJ mice were purchased from Jackson Labs (Bar Harbor, Me., USA) at the age of 6 weeks. Animals were acclimated for at least 2 weeks and housed 4 per cage with free access to water and food under 12 h light/dark cycle at a temperature of 23±2° C. and a humidity of 55±10%.
The mice were anesthetized by an IP injection of xyalazine/ketamine, the hair at the back clipped and the surface sterilized with 70% ethanol. A 3-way, full-thickness incision was introduced with the use of a scalpel, the skin flap separated from underlying tissues, the compound or vehicle applied, and the skin repositioned and sutured. Mice were housed individually after the procedure. The animals were sacrificed by CO2 inhalation and tissues were fixed in formalin, embedded in paraffin and evaluated histologically or immunocytochemically.

[10] = target: T6, RAR-β (Homo sapiens, UniProt P10826); experiment: Receptor binding competition assay with radioactive t-RA; details: apparent Kd from competition with radioactive t-RA, recombinant RAR; read-out: Direct Binding RAR-β Kd
T6 sequence (P10826 1-455): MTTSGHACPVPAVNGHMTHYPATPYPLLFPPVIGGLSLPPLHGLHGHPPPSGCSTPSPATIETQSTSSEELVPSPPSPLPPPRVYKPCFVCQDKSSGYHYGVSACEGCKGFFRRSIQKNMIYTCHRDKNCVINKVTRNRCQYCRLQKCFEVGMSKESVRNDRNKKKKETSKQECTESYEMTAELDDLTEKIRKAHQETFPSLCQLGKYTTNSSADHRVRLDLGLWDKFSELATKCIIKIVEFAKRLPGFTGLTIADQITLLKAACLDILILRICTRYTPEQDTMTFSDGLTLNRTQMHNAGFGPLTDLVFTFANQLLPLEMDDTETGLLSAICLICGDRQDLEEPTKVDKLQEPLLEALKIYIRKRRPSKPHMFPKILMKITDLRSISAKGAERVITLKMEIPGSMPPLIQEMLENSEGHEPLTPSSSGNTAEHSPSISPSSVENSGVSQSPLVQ

SMILES | Transactivation RAR-α % MAX [1] [%] | Transactivation RAR-β % MAX ([2]; HeLa cells, 24 hours) [%] | Transactivation RAR-γ % MAX [3] [%] | IC50 [4] [nM] | Competition RAR-γ % MAX [4] [%] | IC50 [5] [nM] | Competition RAR-α % MAX [5] [%] | Kd [6] [nM] | Kd [7] [nM] | Competition RAR-β % MAX [8] [%] | RARβ transactivation (agonistic) activity, in words ([2]; reporter transactivation assays) | Binding to RARγ relative to Compound 4 ([7]; comparison of Kd values) | IC50 [8] [nM] | Amount of endothelial cells (anti-PECAM-1 staining) ([9]; 0.01% and 0.1%, dose-dependent, FIG. 4) | Number of blood vessels under the flap (histology, H&E) ([9]; lower dose group, FIG. 3 center panel) | Number of blood vessels under the flap (histology, H&E) ([9]; single application, 0.01% and 0.1%, one and two weeks, vs ethanol vehicle, FIG. 3) | Kd [10] [nM] | EC50 ([2]; HeLa cells, 24 hours, 50% of the effect of 10^−6 M t-RA) [nM]
CC1=C(/C=C/C(C)=C/C=C/C(C)=C/C(=O)O)C(C)(C)CCC1 [All Trans RA, all trans retinoic acid, reference compound] | 100 | 100 | 100 |  |  |  |  |  |  |  |  |  |  |  |  |  |  | 
CC1(C)CC=C(c2ccccc2)c2cc(/C=C/c3ccc(C(=O)O)cc3)ccc21 [Compound 4, (E)-4-[2-(5,6-dihydro-5,5-dimethyl-8-phenyl-2-naphthalenyl)ethenyl]benzoic acid] | 0 | 20 | 0 | 200 | 100 | 200 | 100 | 1 | 0.5 | 80 | weak RARβ transactivation activity; also recorded: weak RARβ agonistic activity |  |  |  |  |  |  | 
CC1(C)CC=C(C#Cc2ccccc2)c2cc(/C=C/c3ccc(C(=O)O)cc3)ccc21 [Compound 5, (E)-4-[[(5,6-dihydro-5,5-dimethyl-8-phenylethynyl)-2-naphthalenyl]ethenl]benzoic acid] | 0 | 0 | 0 | 300 | 100 | 200 | 100 | 4.2 | 98 | 100 |  | approximately two orders weaker | 300 | increased amounts of endothelial cells; also recorded: higher amounts of endothelial cells | increase in the number of blood vessels | increased angiogenesis; also recorded: significantly higher numbers of blood vessels | 2.9 | 
CC1(C)CC=C(c2ccc3ccccc3c2)c2cc(/C=C/c3ccc(C(=O)O)cc3)ccc21 [Compound 6, (E)-4-[2-[5,6-dihydro-5,5-dimethyl-8-(2-naphthalenyl)-2-naphthalenyl]ethenyl]-benzoic acid] | 0 | 0 | 0 | 900 | 100 | 300 | 100 | 2 | 24 | 100 |  |  | 500 |  |  |  | 57 | 
COc1ccc(C2=CCC(C)(C)c3ccc(/C=C/c4ccc(C(=O)O)cc4)cc32)cc1 [Compound 7, (E)-4-[2-[5,6-dihydro-5,5-dimethyl-8-(4-methoxyphenyl)-2-naphthalenyl]ethenyl]benzoic acid] | 0 | 0 | 0 | 1000 | 100 | 400 | 100 | 1.3 | 2.6 | 100 |  |  | 1000 |  |  |  | 6.1 | 
CC1(C)CC=C(c2ccccc2)c2cc(/C=C/c3ccc(C(=O)O)cc3Cl)ccc21 [Compound 8, (E)-3-chloro-4-[2-(5,6-dihydro-5,5-dimethyl-8-phenyl-2-naphthalenyl)ethenyl]benzoic acid] | 0 | 110 | 0 | 2000 | 80 | 3000 | 80 | 200 | 245 | 0 |  |  |  |  |  |  | 2.8 | 10
